From ChEMBL document CHEMBL1201862, “PubChem BioAssay data set” (2004)
Calls of active or inactive are those of the source.

Legend:
Assay type in all cases: functional
[1] = molecular target: Serine/threonine-protein kinase Nek4 (Homo sapiens, UniProt P51957)
[2] = molecular target: Casein kinase II subunit alpha (Homo sapiens, UniProt P68400)
[3] = molecular target: RAC-gamma serine/threonine-protein kinase (Homo sapiens, UniProt Q9Y243)
[4] = molecular target: Serine/threonine-protein kinase MRCK alpha (Homo sapiens, UniProt Q5VT25)
[5] = molecular target: Serine/threonine-protein kinase Nek2 (Homo sapiens, UniProt P51955)
Chain of Serine/threonine-protein kinase Nek2 (P51955 whole entry): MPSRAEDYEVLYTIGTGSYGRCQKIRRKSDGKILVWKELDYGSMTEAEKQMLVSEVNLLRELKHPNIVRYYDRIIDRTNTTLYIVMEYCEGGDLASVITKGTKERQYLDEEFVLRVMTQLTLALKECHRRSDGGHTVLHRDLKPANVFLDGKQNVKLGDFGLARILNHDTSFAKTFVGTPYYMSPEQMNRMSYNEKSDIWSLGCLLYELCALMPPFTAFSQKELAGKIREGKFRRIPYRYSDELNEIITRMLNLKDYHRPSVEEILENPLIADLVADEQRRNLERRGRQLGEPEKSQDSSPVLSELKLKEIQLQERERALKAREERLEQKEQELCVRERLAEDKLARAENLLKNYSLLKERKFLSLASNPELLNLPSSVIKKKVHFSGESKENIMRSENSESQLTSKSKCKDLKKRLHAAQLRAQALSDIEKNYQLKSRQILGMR

[6] = molecular target: Calcium/calmodulin-dependent protein kinase type II subunit delta (Homo sapiens, UniProt Q13557)
[7] = molecular target: Mitogen-activated protein kinase kinase kinase 20 (Homo sapiens, UniProt Q9NYL2)
[8] = molecular target: Ribosomal protein S6 kinase alpha-3 (Homo sapiens, UniProt P51812);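 further: measured within a kinome-wide profiling panel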
Chain of Ribosomal protein S6 kinase alpha-3 (P51812 whole entry): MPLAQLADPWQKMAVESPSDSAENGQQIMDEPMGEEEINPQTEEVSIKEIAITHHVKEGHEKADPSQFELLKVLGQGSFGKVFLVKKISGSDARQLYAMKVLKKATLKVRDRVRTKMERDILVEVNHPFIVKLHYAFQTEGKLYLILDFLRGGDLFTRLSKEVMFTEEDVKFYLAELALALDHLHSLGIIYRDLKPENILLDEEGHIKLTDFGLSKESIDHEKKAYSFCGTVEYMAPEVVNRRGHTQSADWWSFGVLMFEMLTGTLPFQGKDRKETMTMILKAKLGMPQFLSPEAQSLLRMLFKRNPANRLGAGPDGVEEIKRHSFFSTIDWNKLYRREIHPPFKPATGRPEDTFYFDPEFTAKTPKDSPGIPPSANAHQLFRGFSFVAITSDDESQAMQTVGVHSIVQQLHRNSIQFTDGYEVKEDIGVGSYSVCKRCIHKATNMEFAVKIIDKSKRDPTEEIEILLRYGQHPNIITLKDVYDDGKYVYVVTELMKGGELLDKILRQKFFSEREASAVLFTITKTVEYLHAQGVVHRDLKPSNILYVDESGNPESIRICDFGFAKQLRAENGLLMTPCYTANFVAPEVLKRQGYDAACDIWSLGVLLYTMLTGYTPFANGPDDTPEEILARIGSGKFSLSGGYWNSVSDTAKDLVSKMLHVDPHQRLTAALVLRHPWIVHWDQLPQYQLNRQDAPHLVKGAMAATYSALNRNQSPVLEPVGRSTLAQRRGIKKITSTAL

[9] = molecular target: Dual specificity tyrosine-phosphorylation-regulated kinase 4 (Homo sapiens, UniProt Q9NR20)
Chain of Dual specificity tyrosine-phosphorylation-regulated kinase 4 (Q9NR20 whole entry): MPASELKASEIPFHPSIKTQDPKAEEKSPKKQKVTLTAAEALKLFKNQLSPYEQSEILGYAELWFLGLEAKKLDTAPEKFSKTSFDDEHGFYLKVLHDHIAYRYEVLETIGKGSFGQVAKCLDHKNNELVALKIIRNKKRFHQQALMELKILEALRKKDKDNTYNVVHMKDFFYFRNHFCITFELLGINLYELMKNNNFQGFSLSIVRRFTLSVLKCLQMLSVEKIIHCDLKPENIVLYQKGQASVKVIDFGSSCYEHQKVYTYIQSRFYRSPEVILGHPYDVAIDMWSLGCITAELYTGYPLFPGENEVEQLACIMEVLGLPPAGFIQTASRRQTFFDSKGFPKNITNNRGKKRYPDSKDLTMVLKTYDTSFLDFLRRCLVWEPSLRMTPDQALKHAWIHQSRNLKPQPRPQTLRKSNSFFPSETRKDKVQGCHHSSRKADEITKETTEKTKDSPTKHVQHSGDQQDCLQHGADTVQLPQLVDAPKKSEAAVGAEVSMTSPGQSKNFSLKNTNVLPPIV

[10] = molecular target: Dual specificity protein kinase CLK2 (Homo sapiens, UniProt P49760)
[11] = molecular target: Serine/threonine-protein kinase DCLK1 (Homo sapiens, UniProt O15075);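 further: affinity for DCLK1 (listed as DCAMKL1) measured as one member of a kinome-wide kinase profiling panel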
[12] = molecular target: Tyrosine-protein kinase Fyn (Homo sapiens, UniProt P06241)
[13] = molecular target: Proto-oncogene tyrosine-protein kinase receptor Ret (Homo sapiens, UniProt P07949);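 further: measured within a kinome-wide profiling panel, RET as the panel member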
[14] = molecular target: Serine/threonine-protein kinase PLK3 (Homo sapiens, UniProt Q9H4B4)
[15] = molecular target: Tyrosine-protein kinase BTK (Homo sapiens, UniProt Q06187)
[16] = molecular target: Dual specificity tyrosine-phosphorylation-regulated kinase 1A (Homo sapiens, UniProt Q13627);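 further: measured against DYRK1A as one member of a broad kinome profiling panel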
[17] = molecular target: ALK tyrosine kinase receptor (Homo sapiens, UniProt Q9UM73);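 further: ALK tested as one member of a kinase panel screen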
[18] = molecular target: Cyclin-dependent kinase 5 (Homo sapiens, UniProt Q00535);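 further: CDK5 measured as one member of a kinase profiling panel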
[19] = molecular target: Serine/threonine-protein kinase D3 (Homo sapiens, UniProt O94806);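 further: determined within a kinase panel screen, with PRKCN as the panel member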
[20] = molecular target: Protein-tyrosine kinase 6 (Homo sapiens, UniProt Q13882)
[21] = molecular target: MAP kinase-activated protein kinase 3 (Homo sapiens, UniProt Q16644);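 further: value comes from a kinome-wide profiling panel in which MAPKAPK3 is one of the panel members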
[22] = molecular target: Serine/threonine-protein kinase pim-2 (Homo sapiens, UniProt Q9P1W9);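 further: value comes from a broad kinase panel profiling study in which PIM2 was one of the panel members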
Chain of Serine/threonine-protein kinase pim-2 (Q9P1W9 whole entry, canonical isoform): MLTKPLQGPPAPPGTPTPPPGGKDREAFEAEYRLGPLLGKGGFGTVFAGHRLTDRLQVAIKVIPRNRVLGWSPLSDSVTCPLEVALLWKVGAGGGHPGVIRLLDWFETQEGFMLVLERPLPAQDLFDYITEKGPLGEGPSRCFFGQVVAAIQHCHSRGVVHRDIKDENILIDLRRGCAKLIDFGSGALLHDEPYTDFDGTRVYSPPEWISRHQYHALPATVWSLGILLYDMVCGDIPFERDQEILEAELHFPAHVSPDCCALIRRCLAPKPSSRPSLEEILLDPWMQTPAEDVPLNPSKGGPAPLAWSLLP

[23] = molecular target: Phosphorylase b kinase gamma catalytic chain, liver/testis isoform (Homo sapiens, UniProt P15735);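 further: PHKG2 measured as one member of a kinome-wide kinase panel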
[24] = molecular target: Glycogen synthase kinase-3 alpha (Homo sapiens, UniProt P49840);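 further: GSK3A result taken from a broad kinome-wide kinase panel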
[25] = molecular target: Serine/threonine-protein kinase TAO1 (Homo sapiens, UniProt Q7L7X3)
[26] = molecular target: Glycogen synthase kinase-3 beta (Homo sapiens, UniProt P49841);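 further: value comes from a broad kinome profiling panel, with GSK3B as the panel member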
[27] = molecular target: Homeodomain-interacting protein kinase 4 (Homo sapiens, UniProt Q8NE63)
Ephrin type-A receptor 2 = Ephrin type-A receptor 2 (Homo sapiens, UniProt P29317);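 further: EPHA2 tested as one member of a kinome-wide kinase panel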
[28] = molecular target: Calcium/calmodulin-dependent protein kinase type II subunit gamma (Homo sapiens, UniProt Q13555)
[29] = molecular target: Fibroblast growth factor receptor 3 (Homo sapiens, UniProt P22607)
[30] = molecular target: Serine/threonine-protein kinase pim-1 (Homo sapiens, UniProt P11309)
[31] = molecular target: RAC-alpha serine/threonine-protein kinase (Homo sapiens, UniProt P31749);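 further: AKT1 affinity measured as one member of a kinome-wide kinase profiling panel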
[32] = molecular target: Serine/threonine-protein kinase Chk2 (Homo sapiens, UniProt O96017);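 further: CHEK2 entry within a kinome-wide screening panel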
Chain of Serine/threonine-protein kinase Chk2 (O96017 whole entry): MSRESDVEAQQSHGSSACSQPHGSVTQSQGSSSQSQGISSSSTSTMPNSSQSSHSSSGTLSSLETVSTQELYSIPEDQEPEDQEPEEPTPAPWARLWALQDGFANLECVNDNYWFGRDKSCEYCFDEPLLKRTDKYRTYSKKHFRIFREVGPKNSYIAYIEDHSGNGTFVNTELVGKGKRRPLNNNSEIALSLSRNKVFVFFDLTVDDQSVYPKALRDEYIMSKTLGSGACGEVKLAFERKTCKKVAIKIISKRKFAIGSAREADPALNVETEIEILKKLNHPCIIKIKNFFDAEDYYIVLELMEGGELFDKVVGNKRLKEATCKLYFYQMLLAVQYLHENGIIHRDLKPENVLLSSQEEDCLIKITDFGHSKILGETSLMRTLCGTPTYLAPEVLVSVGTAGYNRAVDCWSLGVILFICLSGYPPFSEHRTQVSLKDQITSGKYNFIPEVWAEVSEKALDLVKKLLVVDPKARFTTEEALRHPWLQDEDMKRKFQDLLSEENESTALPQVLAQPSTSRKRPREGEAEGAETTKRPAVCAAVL

[33] = molecular target: Tyrosine-protein kinase JAK3 (Homo sapiens, UniProt P52333)
[34] = molecular target: Tyrosine-protein kinase JAK2 (Homo sapiens, UniProt O60674);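 further: JAK2 tested as one member of a kinase panel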
[35] = molecular target: Proto-oncogene tyrosine-protein kinase ROS (Homo sapiens, UniProt P08922);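 further: ROS1 tested as one member of a kinome-wide kinase panel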
[36] = molecular target: Cyclin-dependent kinase 7 (Homo sapiens, UniProt P50613);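 further: value comes from a kinome-wide kinase profiling panel in which CDK7 is one member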
[37] = molecular target: MAP kinase-activated protein kinase 5 (Homo sapiens, UniProt Q8IW41);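 further: measured as one member of a kinome panel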
[38] = molecular target: Calcium/calmodulin-dependent protein kinase type II subunit beta (Homo sapiens, UniProt Q13554)
[39] = molecular target: cAMP-dependent protein kinase catalytic subunit PRKX (Homo sapiens, UniProt P51817)
Chain of cAMP-dependent protein kinase catalytic subunit PRKX (P51817 whole entry): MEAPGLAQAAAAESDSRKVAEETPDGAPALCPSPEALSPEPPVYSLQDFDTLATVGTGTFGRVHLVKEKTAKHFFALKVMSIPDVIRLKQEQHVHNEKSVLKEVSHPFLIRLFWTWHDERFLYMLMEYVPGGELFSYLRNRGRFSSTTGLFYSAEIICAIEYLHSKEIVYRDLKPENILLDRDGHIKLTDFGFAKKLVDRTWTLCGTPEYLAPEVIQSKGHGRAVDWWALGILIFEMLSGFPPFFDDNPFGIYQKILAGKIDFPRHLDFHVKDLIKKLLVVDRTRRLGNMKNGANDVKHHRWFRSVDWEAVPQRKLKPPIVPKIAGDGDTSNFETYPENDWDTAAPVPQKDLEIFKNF

[40] = molecular target: Serine/threonine-protein kinase PAK 4 (Homo sapiens, UniProt O96013);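 further: value obtained within a kinome profiling panel in which PAK4 was one of the panel members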
Chain of Serine/threonine-protein kinase PAK 4 (O96013 whole entry): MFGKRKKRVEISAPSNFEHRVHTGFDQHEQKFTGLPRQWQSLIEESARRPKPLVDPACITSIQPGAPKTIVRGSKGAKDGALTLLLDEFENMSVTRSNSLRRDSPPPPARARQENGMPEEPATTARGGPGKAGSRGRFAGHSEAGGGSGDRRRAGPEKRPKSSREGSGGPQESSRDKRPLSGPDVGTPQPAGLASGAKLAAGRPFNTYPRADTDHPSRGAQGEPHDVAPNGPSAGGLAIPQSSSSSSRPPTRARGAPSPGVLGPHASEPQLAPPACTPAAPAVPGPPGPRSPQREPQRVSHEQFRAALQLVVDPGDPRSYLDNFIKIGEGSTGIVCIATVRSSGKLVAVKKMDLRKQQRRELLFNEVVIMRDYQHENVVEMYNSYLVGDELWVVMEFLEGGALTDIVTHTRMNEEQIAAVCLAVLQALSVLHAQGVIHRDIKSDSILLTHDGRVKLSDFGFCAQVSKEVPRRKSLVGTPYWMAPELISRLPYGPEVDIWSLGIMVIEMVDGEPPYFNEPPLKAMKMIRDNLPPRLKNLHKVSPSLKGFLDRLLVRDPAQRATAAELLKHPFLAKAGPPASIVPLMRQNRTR

[41] = molecular target: cGMP-dependent protein kinase 1 (Homo sapiens, UniProt Q13976);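 further: value from a kinome panel screen with PRKG1 as the panel member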
Misshapen-like kinase 1 = Misshapen-like kinase 1 (Homo sapiens, UniProt Q8N4C8);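 further: kinome panel screen with MINK as the panel member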
[42] = molecular target: STE20-like serine/threonine-protein kinase (Homo sapiens, UniProt Q9H2G2)
Chain of STE20-like serine/threonine-protein kinase (Q9H2G2 whole entry): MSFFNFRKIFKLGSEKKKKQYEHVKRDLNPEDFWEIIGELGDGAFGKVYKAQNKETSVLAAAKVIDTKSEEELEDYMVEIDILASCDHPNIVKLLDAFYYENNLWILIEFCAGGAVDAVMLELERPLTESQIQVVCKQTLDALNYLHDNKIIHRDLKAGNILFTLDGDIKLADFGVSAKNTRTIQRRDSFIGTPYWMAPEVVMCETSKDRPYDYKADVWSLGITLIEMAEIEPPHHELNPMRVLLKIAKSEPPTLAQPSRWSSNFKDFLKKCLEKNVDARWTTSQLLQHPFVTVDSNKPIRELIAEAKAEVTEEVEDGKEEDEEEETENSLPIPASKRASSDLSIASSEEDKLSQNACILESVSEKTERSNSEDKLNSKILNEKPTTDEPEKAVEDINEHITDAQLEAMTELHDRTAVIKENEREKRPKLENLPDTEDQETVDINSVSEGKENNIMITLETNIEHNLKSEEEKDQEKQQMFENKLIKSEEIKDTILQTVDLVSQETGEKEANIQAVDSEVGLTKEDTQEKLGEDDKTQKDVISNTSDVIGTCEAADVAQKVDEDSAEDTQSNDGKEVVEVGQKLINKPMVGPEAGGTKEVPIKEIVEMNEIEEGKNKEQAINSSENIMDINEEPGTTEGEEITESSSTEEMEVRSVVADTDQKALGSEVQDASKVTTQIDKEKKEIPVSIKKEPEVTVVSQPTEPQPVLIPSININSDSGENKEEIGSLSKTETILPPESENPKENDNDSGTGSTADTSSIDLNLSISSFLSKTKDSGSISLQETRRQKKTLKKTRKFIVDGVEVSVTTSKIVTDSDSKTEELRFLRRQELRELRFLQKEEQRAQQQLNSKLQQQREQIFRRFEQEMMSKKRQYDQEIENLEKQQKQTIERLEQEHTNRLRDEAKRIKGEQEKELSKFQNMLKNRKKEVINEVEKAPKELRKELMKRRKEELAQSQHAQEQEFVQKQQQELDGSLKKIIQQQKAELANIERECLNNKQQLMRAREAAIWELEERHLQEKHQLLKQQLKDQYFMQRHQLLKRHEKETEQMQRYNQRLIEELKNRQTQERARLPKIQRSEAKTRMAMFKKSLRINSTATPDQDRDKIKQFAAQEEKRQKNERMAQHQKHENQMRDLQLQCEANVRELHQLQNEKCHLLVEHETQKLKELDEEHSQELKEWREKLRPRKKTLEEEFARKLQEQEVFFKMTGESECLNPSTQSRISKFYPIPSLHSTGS

[43] = molecular target: Dual specificity tyrosine-phosphorylation-regulated kinase 3 (Homo sapiens, UniProt O43781);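 further: measured as one member of a broad kinase panel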
[44] = molecular target: Dual specificity protein kinase CLK4 (Homo sapiens, UniProt Q9HAZ1)

NC1CCCCC1Nc1nccc(-c2c[nH]c3ncccc23)n1 (stereo unspecified)
Ki [1]: 3160 nM (active) | Ki [2]: > 6310 nM (inactive) | Ki [3]: 501 nM (active) | Ki [4]: 63.1 nM (active) | Ki [5]: > 10000 nM (inactive) | Ki [6]: 39.8 nM (active) | Ki [7]: > 7940 nM (inactive) | Ki [8]: 100 nM (active) | Ki [9]: 158 nM (active) | Ki [10]: 39.8 nM (active) | Ki [11]: 3160 nM (active) | Ki [12]: > 794 nM (inactive) | Ki [13]: 251 nM (active) | Ki [14]: > 7940 nM (inactive) | Ki [15]: > 1260 nM (inactive) | Ki [16]: 7.94 nM (active) | Ki [17]: > 1260 nM (inactive) | Ki [18]: 50.1 nM (active) | Ki [19]: 79.4 nM (active) | Ki [20]: > 2510 nM (inactive) | Ki [21]: > 10000 nM (inactive) | Ki [22]: 1000 nM (active) | Ki [23]: 158 nM (active) | Ki [24]: 158 nM (active) | Ki [25]: 3980 nM (active) | Ki [26]: 200 nM (active) | Ki [27]: 1580 nM (active) | Ki (Ephrin type-A receptor 2): > 3160 nM (inactive) | Ki [28]: 79.4 nM (active) | Ki [29]: > 2000 nM (inactive) | Ki [30]: 501 nM (active) | Ki [31]: 631 nM (active) | Ki [32]: > 1580 nM (inactive) | Ki [33]: 1260 nM (active) | Ki [34]: 794 nM (active) | Ki [35]: > 2000 nM (inactive) | Ki [36]: 6.31 nM (active) | Ki [37]: > 1580 nM (inactive) | Ki [38]: 316 nM (active) | Ki [39]: 31.6 nM (active) | Ki [40]: 100 nM (active) | Ki [41]: 158 nM (active) | Ki (Misshapen-like kinase 1): 126 nM (active) | Ki [42]: 316 nM (active) | Ki [43]: 126 nM (active) | Ki [44]: 6.31 nM (active)
